Earlier results as cited in patent publication US20080089848A1, “INTRATHECAL INJECTION OF MICROBUBBLES” (priority 2006, published 2008).

What was measured:
[1] = systemic administration, patients with intracranial hypertension
vasospasm following SAH = conditions: collagen devices, canines with autologous blood in the cisterna magna
[2] = tested on: middle cerebral artery occlusion
[3] = tested on: beta amyloid protein; dopaminergic neurons
[4] = tested on: glutamate-induced nitric oxide related neurotoxicity
vasospasm [5] = tested on: vasospasm
[6] = tested on: primary murine cerebellar granule neurons
traumatic brain injury = conditions: parental administration no more than 12 hours post-trauma
vasospasm [7] = tested on: vasospasm; remark: listed apart in the source
[8] = rat MCA occlusion, retrograde cerebral vein infusion
[9] = intracisternal injection, patients, Hamada 2003

## O=S(=O)([O-])[O-].[Mg+2] [magnesium sulfate]
[1]
  CSF ionized magnesium concentration: failed to increase
  increase of plasma magnesium levels: > 50%

## hirudin
Vasospasm following SAH
  reduction in the diameter of the basilar artery: lowered the reduction in the diameter of the basilar artery

## CCNCc1cc(C(C)(C)C)c(O)c(C(C)(C)C)c1 [LY231617]
[2]; [8]
  BBB permeability: significant improvement
  local cerebral blood flow: significant increase
[2]; seven hours post-MCA occlusion
  ischemic damage: significantly reduced

## VEGF
[3]; Yang
  neuroprotection in AD: provides neuroprotection in AD by binding to beta amyloid protein
[3]; low dose, Yasuhara
  neuroprotection in PD: neuroprotective towards dopaminergic neurons

## CN(c1nc2ccccc2s1)C1CCN(C[C@H](O)COc2ccc(F)c(F)c2)CC1 [lubeluzole]
[4]
  glutamate-induced nitric oxide related neurotoxicity: inhibits

## NCCN(CCN)/[N+]([O-])=N/O [diethylene-triamine/NO]
Vasospasm [5]; implants in the cisterna magna, Pradilla
  vasospasm in rabbits: prevented vasospasm
Vasospasm [5]; implants in the subarachnoid space, Gabikian
  vasospasm in the rabbit basilar artery: prevented vasospasm

## TNF-α
[6]
  concentration that markedly reduces the capacity of IGF-I to promote survival: ≥ 10 pg/mL

## [Mg+2] [magnesium]
Traumatic brain injury
  brain magnesium homeostasis: restores brain magnesium homeostasis
  motor and cognitive outcome: profoundly improves both motor and cognitive outcome

## urokinase
Vasospasm [7]; human, in vivo
  safety and prevention of vasospasms: safe and reasonable means of preventing vasospasms
Vasospasm [7]; [9]
  occurrence of symptomatic vasospasm: significantly reduced
  rate of permanent neurological deficits: lower rate
